Laboratory results from patent publication US20100221763A1, “Specific Acceptors for Transferases to Saccharides and Method for Obtaining and Using Same” (Health Research, Inc, priority 2005, published 2010).
Where “and” joins values, the source holds several entries; their conditions need not be identical. Identical values can stand only once.

Legend:
LNCaP α2,3(O)ST = assay: Sialyltransferase assay with LNCaP cell extract; type: biochemical, human; details: Table I; acceptor 7.5 mM; 100% = 30930 CPM (3-O-MeGalβ1,4GlcNAcβ1,6(Galβ1,3)GalNAcα-O-Bn)
How it was run: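 LNCaP Triton X-100 extract (5 mg protein/ml; 0.1M Tris-maleate pH6.3) incubated with acceptor (typically 7.5 mM) and CMP-[9-3H]NeuAc (typically 0.2 μCi) in 0.1M Na cacodylate pH6.0, 2 h at 37 °C, in duplicate. Radioactive product separated on Dowex-1-formate, Sep-Pak C18 or Biogel P2 and counted by scintillation; blank without acceptor subtracted.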

[1] = molecular target: T1, Rat recombinant α2,3(O)ST (Rattus norvegicus, UniProt Q11205); assay: Sialyltransferase assay with cloned α2,3(O)ST; type: biochemical; details: for Km / Vmax: CMP-NeuAc 150 μM, Lineweaver-Burke plot; for Sialyltransferase activity (%) Cloned α2,3(O)ST: Table I, acceptor 7.5 mM, 100% = 40560 CPM (3-O-MeGalβ1,4GlcNAcβ1,6(Galβ1,3)GalNAcα-O-Bn)
T1 construct: purchased Calbiochem
T1 sequence (Q11205 1-350): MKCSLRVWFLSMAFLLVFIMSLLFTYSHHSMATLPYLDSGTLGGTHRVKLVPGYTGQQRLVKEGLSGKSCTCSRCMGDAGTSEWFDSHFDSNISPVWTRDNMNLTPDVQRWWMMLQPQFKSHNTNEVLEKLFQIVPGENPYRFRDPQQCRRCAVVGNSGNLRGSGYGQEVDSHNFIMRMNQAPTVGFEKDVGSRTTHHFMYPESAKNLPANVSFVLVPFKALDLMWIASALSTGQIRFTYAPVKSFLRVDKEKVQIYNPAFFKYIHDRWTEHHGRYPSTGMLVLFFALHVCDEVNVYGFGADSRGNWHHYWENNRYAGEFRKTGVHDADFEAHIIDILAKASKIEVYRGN

Compound | Sialyltransferase activity (%) LNCaP α2,3(O)ST (LNCaP α2,3(O)ST) [%] | Km [1] [µM] | Vmax [1] | Sialyltransferase activity (%) Cloned α2,3(O)ST [1]
CO[C@H]1O[C@H](CO)[C@H](O)[C@H](O[C@@H]2O[C@H](CO)[C@H](O)[C@H](O[C@@H]3O[C@H](C)[C@H](O)[C@H](O)[C@H]3O)[C@H]2NC(C)=O)[C@H]1O [D-Fucβ1,3GalNAcβ1,3Galα-O-Me] | 9.6 | 560 | 1873 pmol/h | 115.6^3%
CO[C@H]1[C@H](O[C@H]2[C@H](O)[C@@H](NC(C)=O)C(O)O[C@@H]2CO)O[C@H](CO)[C@H](O)[C@@H]1O (stereo partly drawn) [2-O-MeGalβ1,4GlcNAc] | – | – | – | 0.2%
CO[C@H]1[C@H](O[C@H]2[C@H](O)[C@@H](CO)OC(O)[C@@H]2NC(C)=O)O[C@H](CO)[C@H](O)[C@@H]1O (stereo partly drawn) [2-O-MeGalβ1,3GlcNAc] | – | – | – | 2.9%
CO[C@H]1O[C@H](CO)[C@H](O)[C@H](O[C@@H]2O[C@H](CO)[C@H](O)[C@H](O[C@@H]3O[C@H](CO)[C@H](O)[C@H](O)[C@H]3O)[C@H]2NC(C)=O)[C@H]1O [Galβ1,3GalNAcβ1,3Galα-O-Me] | 34.3 | 120 | 1293^13 pmol/h | 120.8% and 120.8^2%
C=CCO[C@H]1O[C@H](CO)[C@H](O)[C@H](O[C@@H]2O[C@H](CO)[C@H](O)[C@H](O)[C@H]2O)[C@H]1NC(C)=O [Galβ1,3GalNAcα-O—Al] | 34.4 | – | – | 112.0%
